Results reported in paper PMC8524858, “Dual inhibition of αvβ6 and αvβ1 reduces fibrogenesis in lung tissue explants from patients with IPF” (Respiratory Research, 2021).
pIC50: −log10 of the molar value.

Columns and labels:
[1] = test system: bleomycin-challenged C57BL/6 mice; experiment: In vivo bleomycin mouse model of pulmonary fibrosis; conditions: Day 7 to Day 21 after bleomycin
Method: C57BL/6 mice (Charles River; Hollister, CA, USA) were administered 3 units/kg bleomycin (Teva; Toronto, ON, Canada) or vehicle (water) via oropharyngeal aspiration. Lung tissue and bronchioalveolar lavage (BAL) cells were collected after 14 or 21 days to evaluate Smad phosphorylation and collagen deposition.
OHP levels and fractional synthesis rates were determined similar to that previously described.
Formalin-fixed, paraffin-embedded mouse lung tissue sections underwent SHG imaging to characterize the quantity and quality of fibrillar collagen deposition using methods similar to that previously described.
For pSmad3 and total Smad3 quantitation, lung tissues or bronchoalveolar lavage (BAL) cells were lysed in RIPA buffer with protease inhibitor cocktail (Thermo Fisher; #78442). Total protein concentration was normalized across lysates following quantitation by bicinchoninic acid protein assay (Thermo Fisher; #23225). MSD GOLD 96 Small Spot Streptavidin plates were rinsed with PBST, followed by incubation with 1 µg/ml of biotinylated anti-Smad2/3 antibody under agitation for 1 h. Following a second rinse, a 50:50 mix of unknown sample and PBST was added to duplicate wells. Following a 1 h incubation and another rinse, 1 µg/ml of sulfo-tag-labeled anti-pSmad3 or anti-Smad3 antibody was added and incubated for 1 h under agitation. After a final rinse, 1x read buffer was added and the plate was read using an MSD sector imager instrument (SECTOR S 600). pSmad3/Smad3 signal ratios were compared across time points to calculate fold changes.
Male, 8-week-old C57BL/6 mice (Charles River; Hollister, CA, USA) were administered 3 U/kg bleomycin (Teva) or vehicle (water) via oropharyngeal aspiration while under anesthesia (ketamine/xylazine). […] Total lung weights were recorded, and right lobes were snap-frozen and stored at -80 °C. […]
OHP levels in mouse lung tissue were determined similar to that previously described (E15) using the QuickZyme hydroxyproline assay kit (QuickZyme Biosciences; Leiden, Netherlands). […] Hydrolysate was adjusted to 4 M HCl and analyzed for OHP concentrations in a 96-well format, according to manufacturer’s instruction. Absorbance was read at 570 nm with an Infinite M200 PRO microtiter plate reader (Tecan; Crailsheim, Germany) and total lung OHP levels calculated from OHP concentrations (µg OHP/mg tissue) by normalizing to total lung weight. […]
Formalin-fixed paraffin embedded sections prepared from mouse lung tissue underwent SHG imaging to characterize both the quantity and quality of fibrillar collagen deposition using methods similar to that previously described (E16). […]

[2] = test system: normal human lung fibroblast adhesion to LAP; experiment: Primary cell LAP adhesion assay (cell impedance), normal HLF; assay type: cell-based; conditions: HLFs isolated from normal lung tissue, read-out: IC50 for blocking adhesion to LAP
Method: Adhesion of primary human lung cells to LAP was quantified using the xCELLigence RTCA MP instrument (ACEA Biosciences; San Diego, CA, USA) via cell impedance measurements similar to that previously described.
Adhesion assays were performed using the xCELLigence RTCA MP instrument (ACEA Biosciences; San Diego, CA, USA) on 96-well PET plates (ACEA Biosciences; 300600910) via a cell impedance measurement similar to one previously described (E6). Plates were coated with LAP (Sino Biological; 10804-H08H1) overnight at 4 °C and blocked with BSA for 2 h at 37 °C. NHLF (40,000 cells/well), dHLF (40,000 cells/well), or NHBE (20,000 cells per well) in FBS-free media were combined with small-molecule integrin inhibitors or antibodies in the plates and incubated at 37 °C with 5% CO2. […] Anti-αv antibody, 17E6, and anti-β1 antibody, P5D2, were tested at a single concentration (10 μg/ml). Cell impedance (cell index) was measured at baseline and every 3 min for up to 24 h using xCELLigence RTCA 2.1.0 Software (ACEA Biosciences). […] Geometric mean IC50 was calculated for each compound following repeat analyses of multiple donor cells.

[3] = molecular target: T1, αvβ6-induced TGF-β activation (Homo sapiens, UniProt P06756+P18564); experiment: TGF-β co-culture assay, SW-β6 cells with MLEC luciferase reporter cells; assay type: cell-based; conditions: integrin αvβ6
T1 construct: expressed in transfected cells; host or cells: SW480 cells stably transfected with β6 (SW-β6), co-cultured with MLEC reporter cells
Method: SW-β6 cells and MLECs or CHO-αv cells and MLECs were cultured in 96-well plates with test compounds or antibodies for 20 h at 37 °C in a 5% CO2 incubator. […] Measurement of MLEC luciferase production resulting from αvβ6- or αvβ1-mediated TGF-β activation was performed using the Bright-Glo Luciferase Assay System (Promega; Madison, WI, USA) according to manufacturer’s instruction. Luminescence was quantified by a Tecan Spark 10M plate reader. IC50 curves were generated using Dotmatics software suite with five-parameter logistic curve fitting. Geometric mean IC50 was calculated for each compound from multiple independent analyses.

T1 sequence (P06756 31-1048): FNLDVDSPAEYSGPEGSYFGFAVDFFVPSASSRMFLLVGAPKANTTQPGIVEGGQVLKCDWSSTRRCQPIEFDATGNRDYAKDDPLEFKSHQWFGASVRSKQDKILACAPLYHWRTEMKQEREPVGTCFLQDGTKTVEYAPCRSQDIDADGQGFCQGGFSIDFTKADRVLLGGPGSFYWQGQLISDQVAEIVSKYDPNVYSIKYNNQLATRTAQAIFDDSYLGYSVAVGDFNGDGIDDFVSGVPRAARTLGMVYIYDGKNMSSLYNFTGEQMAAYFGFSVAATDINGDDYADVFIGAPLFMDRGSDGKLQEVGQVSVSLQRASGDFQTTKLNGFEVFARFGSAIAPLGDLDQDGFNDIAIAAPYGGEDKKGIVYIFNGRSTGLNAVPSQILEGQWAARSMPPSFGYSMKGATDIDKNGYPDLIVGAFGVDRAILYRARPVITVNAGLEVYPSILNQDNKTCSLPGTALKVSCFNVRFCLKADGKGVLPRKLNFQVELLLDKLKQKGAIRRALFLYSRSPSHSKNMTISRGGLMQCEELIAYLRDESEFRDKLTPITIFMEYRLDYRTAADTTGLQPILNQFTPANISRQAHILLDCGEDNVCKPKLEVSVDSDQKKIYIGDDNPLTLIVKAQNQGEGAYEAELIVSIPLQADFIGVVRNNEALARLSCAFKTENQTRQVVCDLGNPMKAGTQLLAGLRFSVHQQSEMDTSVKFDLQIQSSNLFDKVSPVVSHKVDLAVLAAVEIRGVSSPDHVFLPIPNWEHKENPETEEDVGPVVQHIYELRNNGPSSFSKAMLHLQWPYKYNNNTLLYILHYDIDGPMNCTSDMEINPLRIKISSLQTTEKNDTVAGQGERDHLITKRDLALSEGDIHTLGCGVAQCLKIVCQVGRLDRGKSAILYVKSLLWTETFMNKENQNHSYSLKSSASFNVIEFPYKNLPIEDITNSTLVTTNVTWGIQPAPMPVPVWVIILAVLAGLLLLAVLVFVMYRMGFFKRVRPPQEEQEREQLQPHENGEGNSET
T1 sequence (P18564 22-788): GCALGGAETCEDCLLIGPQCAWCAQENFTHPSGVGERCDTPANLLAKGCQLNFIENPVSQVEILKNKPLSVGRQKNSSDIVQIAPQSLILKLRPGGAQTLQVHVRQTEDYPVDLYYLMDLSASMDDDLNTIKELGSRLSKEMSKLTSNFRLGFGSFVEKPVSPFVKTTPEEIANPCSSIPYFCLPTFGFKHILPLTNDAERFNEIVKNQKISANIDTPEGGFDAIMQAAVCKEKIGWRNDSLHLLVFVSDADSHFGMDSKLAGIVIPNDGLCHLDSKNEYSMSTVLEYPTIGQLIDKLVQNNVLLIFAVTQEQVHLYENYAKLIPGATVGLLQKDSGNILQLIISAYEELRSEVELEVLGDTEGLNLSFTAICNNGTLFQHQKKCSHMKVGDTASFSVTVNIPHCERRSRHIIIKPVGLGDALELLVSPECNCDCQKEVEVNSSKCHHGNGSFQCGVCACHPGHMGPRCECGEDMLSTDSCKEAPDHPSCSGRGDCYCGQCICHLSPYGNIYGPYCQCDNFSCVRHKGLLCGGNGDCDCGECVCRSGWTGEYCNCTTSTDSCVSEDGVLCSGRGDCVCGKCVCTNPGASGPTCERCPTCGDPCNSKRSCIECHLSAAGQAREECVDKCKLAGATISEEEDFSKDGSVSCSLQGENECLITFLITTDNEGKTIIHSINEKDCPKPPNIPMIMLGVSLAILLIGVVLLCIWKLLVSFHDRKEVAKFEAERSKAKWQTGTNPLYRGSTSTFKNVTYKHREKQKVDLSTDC

COCCN(CCCCc1ccc2c(n1)NCCC2)CC[C@H](Nc1ncnc2ccccc12)C(=O)O [PLN-74809]
Smad3 phosphorylation in lung tissue ([1]; oral 100, 250, 500 mg/kg BID): dose-dependently blocked | interstitial fibrillar collagen deposition (SHG imaging) ([1]; oral 100, 250, 500 mg/kg BID, vs vehicle): dose-dependent, significant reduction | total pulmonary hydroxyproline levels ([1]; oral 100-500 mg/kg BID, vs vehicle (Fig. S3A)): dose-dependently reduced | hydroxyproline deposition rate (2H incorporation) ([1]; oral 100-500 mg/kg BID, vs vehicle (Fig. S3B)): dose-dependently reduced | pIC50 [2]: 7.80 | Fold selectivity (vs αvβ6) ([3]; TGF-β activation): 1× | pIC50 [3]: 7.53
